Reference: US20210318318A1, “Kinase Activity In Tumors” (Institute For Cancer Research d/b/a The Research Institute …, priority 2018, published 2021)
“Also recorded” adds a separate entry of the source.

Assays:
MRCKA [1] = biological target: T1, MRCKA (Homo sapiens, UniProt Q5VT25); assay: BDP5290 target profiling (in vitro kinase assays, MIB/MS proteomic analysis of drug binders); type: binding; parameters: endogenous in cells; host or cells: OVSAHO; settings: doses <5 μM
Description: PCA plot of MIB-determined SILAC ratios.
(§1) Statistical kinases are identified using Students T-tests with FDR 0.05.
(§2) Lysates were then incubated with MIBs for 45 minutes at 4° C. (Medard et al., J. Proteome Res., 2015, 14, 1574-1586) and added to gravity flow columns. The MIB preparation protocol was subsequently followed excluding the reduction and alkylation steps. Following methanol/chloroform precipitation, the precipitated pellet was resuspended in 20 μL complete MIBs lysis buffer and 4 μL 6×LSB was added to each sample. Samples were boiled at 100° C. for 5 minutes and subjected to western blot analysis. For the selectivity assay analyzed via LC-MS/MS, 5 mg OVSAHO lysates were preincubated with the same drug concentrations and incubated with MIBs, and the MIB preparation protocol was followed.

[2] = tested on: FAK1, MLC and Paxillin phosphorylation; FAK1 and CHEK1 protein levels; assay: Western blot of signaling in inhibitor-treated HGSOC cells; type: cell-based, human; settings: HGSOC cells, 0.5, 1 or 3 μM, 48 hours
Description: COV362 cells were treated with 0.5, 1 or 3 μM of A-674563 or SB-772077 for 48 hours and signaling monitored by western blot.
Samples were harvested in MIB lysis buffer, subjected to SDS-PAGE […] and transferred to PVDF membranes before western blotting with primary antibodies. For pMYPT and pMLC blots, cells were harvested in a buffer containing 1% (w/v) SDS, 50 mM Tris pH 7.5 supplemented with protease and phosphatase inhibitors buffer and were passed through QIAshredder columns (Qiagen, 79654), (Unbekandt et al., Cell Commun. Signal., 2014, 12, 54). For the list of primary antibodies used, see Table 4. Secondary HRP-anti-rabbit and HRP-anti-mouse were obtained from ThermoFisher Scientific. SuperSignal West Pico and Femto Chemiluminescent Substrates (Thermo) were used to visualize blots.

HGSOC cells = assay: Cell viability of HGSOC cell line panel (Cell Titer Glo); type: cell-based, human
Description: Cells were treated with increasing concentrations of PF-03758309 and cell viability assessed by Cell Titer Glo according to manufacturer's instructions. Data represent the mean of six replicates.
Cell viability was assessed by Cell Titer Glo according to manufacturing. Data represent the mean of six replicates.
For short-term growth assays, 3000-5000 cells were plated per well in 96-well plates and allowed to adhere and equilibrate overnight. Drug was added the following morning and after 120 hours of drug treatment, cell viability was assessed using the CellTiter-Glo Luminescent cell viability assay according to manufacturer (Promega). Students t tests were performed for statistical analyses and p values ≤0.05 were considered significant. For colony formation assays, cells were plated in 24-well dishes (3000-5000 cells per well) and incubated overnight before continuous drug treatment for 14 days, with drug and media replaced twice weekly. At the end of treatment, cells were rinsed with PBS and fixed with chilled methanol for 10 minutes at −20° C. Methanol was removed by aspiration, and cells were stained with 0.5% crystal violet in 20% methanol for 20 minutes at room temperature, washed with distilled water, and scanned.

MRCKA [3] = biological target: T1, MRCKA; settings: Unbekandt et al., 2014; cited from earlier work
AURKB = biological target: T2, AURKB (Homo sapiens, UniProt Q96GD4); assay: BDP5290 target profiling (in vitro kinase assays, MIB/MS and MIB-bead selectivity profiling); type: binding
T2 construct: endogenous in cells; host or cells: OVCAR4 cells; OVSAHO and KURAMOCHI lysates
T2 sequence (Q96GD4 whole entry): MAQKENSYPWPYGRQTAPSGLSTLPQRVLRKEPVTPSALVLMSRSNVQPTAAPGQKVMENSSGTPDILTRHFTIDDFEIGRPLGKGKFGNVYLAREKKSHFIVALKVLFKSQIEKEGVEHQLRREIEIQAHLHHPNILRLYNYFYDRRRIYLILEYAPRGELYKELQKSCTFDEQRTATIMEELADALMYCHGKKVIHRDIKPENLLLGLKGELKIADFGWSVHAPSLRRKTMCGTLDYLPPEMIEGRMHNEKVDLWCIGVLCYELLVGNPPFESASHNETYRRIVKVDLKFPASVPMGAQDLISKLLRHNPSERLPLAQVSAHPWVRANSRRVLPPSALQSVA
Description: as §1
(§3) MIB-elutions were then analyzed by western blot.
(§4) Kinome elutions were then analyzed using LC-MS/MS and changes in kinase binding quantified using label free quantitation.
as §2

MRCKB = biological target: T3, MRCKB (Homo sapiens, UniProt Q9Y5S2); assay: as above; type: binding
T3 construct: endogenous in cells; host or cells: OVSAHO
T3 sequence (Q9Y5S2 whole entry): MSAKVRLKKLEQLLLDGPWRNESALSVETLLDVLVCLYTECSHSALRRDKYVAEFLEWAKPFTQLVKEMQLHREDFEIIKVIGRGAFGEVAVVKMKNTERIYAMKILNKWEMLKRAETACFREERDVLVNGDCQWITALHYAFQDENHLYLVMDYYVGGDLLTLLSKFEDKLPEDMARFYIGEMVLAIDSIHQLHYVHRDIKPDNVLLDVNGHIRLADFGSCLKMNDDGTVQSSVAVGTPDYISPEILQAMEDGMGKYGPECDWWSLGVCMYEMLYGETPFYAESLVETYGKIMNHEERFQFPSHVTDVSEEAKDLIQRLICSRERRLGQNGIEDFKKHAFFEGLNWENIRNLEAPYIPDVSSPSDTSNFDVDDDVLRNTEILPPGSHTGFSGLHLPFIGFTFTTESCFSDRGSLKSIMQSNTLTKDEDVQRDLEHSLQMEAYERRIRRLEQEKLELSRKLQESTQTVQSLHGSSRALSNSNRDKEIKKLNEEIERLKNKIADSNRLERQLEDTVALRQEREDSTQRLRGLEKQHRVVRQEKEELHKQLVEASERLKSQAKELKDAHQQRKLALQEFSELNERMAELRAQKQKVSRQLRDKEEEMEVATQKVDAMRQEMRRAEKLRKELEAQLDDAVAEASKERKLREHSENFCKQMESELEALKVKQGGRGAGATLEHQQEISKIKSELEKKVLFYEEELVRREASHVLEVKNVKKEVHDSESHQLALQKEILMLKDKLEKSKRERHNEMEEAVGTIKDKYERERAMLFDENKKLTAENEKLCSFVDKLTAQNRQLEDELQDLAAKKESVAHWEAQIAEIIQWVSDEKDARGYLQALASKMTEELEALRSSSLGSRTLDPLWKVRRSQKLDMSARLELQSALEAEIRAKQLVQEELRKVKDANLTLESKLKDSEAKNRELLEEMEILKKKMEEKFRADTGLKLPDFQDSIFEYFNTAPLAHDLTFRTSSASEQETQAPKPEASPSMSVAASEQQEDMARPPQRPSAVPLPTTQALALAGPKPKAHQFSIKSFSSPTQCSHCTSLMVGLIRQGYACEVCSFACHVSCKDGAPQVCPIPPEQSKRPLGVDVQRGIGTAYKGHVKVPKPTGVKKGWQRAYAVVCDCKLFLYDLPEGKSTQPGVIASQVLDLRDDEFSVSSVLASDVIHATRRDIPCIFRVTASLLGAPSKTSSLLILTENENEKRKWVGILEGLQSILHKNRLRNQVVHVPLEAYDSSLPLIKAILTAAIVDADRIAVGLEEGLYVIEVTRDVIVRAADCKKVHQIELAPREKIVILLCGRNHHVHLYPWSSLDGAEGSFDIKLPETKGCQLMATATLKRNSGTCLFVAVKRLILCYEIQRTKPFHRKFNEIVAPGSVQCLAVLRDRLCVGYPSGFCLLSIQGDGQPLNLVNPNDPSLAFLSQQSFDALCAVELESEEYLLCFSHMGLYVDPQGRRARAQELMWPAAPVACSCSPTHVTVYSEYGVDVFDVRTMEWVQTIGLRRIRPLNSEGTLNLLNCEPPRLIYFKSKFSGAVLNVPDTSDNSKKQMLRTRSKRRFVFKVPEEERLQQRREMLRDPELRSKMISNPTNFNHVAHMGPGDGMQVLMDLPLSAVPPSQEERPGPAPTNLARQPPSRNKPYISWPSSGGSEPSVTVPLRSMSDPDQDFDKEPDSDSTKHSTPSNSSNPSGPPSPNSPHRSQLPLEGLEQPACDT
Description: as §3, §4, §2

[4] = cell lysates incubated with increasing doses for 30 minutes

T1 sequence (Q5VT25 whole entry): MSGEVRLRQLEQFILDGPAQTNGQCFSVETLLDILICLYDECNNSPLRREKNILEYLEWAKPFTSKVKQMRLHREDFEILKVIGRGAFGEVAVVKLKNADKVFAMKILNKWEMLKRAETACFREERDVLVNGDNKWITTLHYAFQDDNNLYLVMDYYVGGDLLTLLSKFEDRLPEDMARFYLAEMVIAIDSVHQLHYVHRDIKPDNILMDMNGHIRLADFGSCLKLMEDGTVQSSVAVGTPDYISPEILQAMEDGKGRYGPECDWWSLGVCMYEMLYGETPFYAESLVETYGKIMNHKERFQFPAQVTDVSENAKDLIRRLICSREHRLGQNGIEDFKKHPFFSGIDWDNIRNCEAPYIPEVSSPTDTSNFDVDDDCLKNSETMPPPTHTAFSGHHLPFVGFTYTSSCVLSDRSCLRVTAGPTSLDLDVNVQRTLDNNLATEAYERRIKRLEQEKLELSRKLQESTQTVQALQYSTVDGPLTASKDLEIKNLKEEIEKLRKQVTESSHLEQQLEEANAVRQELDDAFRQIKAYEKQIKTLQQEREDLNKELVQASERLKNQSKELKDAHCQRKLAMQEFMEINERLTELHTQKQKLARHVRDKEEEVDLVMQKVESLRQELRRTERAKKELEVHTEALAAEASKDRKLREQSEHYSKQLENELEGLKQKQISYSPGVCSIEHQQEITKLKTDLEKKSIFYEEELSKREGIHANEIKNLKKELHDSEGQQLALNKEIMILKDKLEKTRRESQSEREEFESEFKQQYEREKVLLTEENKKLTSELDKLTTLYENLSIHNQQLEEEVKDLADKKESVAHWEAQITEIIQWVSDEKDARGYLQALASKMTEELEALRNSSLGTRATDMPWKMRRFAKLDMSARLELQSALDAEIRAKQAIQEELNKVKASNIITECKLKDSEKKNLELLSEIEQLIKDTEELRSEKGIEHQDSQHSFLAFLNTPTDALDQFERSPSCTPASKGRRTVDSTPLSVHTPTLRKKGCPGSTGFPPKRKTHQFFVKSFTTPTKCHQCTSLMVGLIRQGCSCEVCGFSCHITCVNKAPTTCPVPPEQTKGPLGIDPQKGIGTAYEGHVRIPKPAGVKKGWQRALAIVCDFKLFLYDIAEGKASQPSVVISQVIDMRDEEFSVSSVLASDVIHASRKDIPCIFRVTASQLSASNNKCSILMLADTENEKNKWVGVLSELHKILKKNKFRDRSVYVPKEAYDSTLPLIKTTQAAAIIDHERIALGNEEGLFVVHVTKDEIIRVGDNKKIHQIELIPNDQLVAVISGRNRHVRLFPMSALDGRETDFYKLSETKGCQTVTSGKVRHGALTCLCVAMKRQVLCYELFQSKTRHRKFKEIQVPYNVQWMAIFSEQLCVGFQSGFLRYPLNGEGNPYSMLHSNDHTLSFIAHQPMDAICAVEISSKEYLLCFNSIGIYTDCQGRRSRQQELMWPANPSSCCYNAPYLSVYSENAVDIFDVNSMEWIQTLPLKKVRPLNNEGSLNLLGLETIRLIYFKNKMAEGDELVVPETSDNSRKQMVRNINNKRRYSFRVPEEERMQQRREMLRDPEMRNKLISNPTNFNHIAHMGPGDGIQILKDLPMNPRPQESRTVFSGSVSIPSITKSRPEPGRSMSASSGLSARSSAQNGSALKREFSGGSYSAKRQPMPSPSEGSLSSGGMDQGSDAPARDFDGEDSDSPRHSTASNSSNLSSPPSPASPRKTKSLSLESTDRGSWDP

activity against primary target MRCKA in HGSOC cells (MRCKA [1]): little activity
elution of AURKB from MIB beads (western blot) (AURKB; [4]): elute AURKB
off-target activity on AURKB in HGSOC cells (AURKB; doses <5 μM): off-targets
elution of MRCKB from MIB beads (western blot) (MRCKB; [4]): not MRCKB
activity against primary target MRCKB in HGSOC cells (MRCKB; doses <5 μM): little activity
Compound: O=C(Nc1cn[nH]c1-c1ccccn1)c1nn(C2CCNCC2)cc1Cl [BDP5290]
pMLC, pMYPT1, pFAK or total FAK1 or CHEK1 levels [2]: did not reduce
potency in HGSOC cells (HGSOC cells; doses <5 μM): minimal potency
cell viability of HGSOC cells (HGSOC cells; increasing concentrations, Cell Titer Glo): inhibiting HGSOC cell viability at higher concentrations; also recorded: minimal effects
Ki (MRCKA [3]): 10 nM
